Literature values as cited in patent EP4755400A1, “ANTIBODY-DRUG CONJUGATE CONTAINING GLYCOSYLPYRIDINE LINKER” (Novocodex Biopharmaceuticals Co., Ltd., priority 2023, dated 2025).

Test system: human carcinoma lines

IC50: 100 to 200 nM
SMILES: COc1cccc2c1C(=O)c1c(O)c3c(c(O)c1C2=O)C[C@@](O)(C(=O)CO)C[C@@H]3O[C@H]1C[C@H](N)[C@H](O)[C@H](C)O1 [doxorubicin]
